The values below come from US20130288981A1, “TARGETING SENESCENT CELLS AND CANCER CELLS BY INTERFERENCE WITH JNK AND/OR FOXO4” (Buck Institute for Research on Aging, priority 2012, published 2013).

Experiment [1] deals with FOXO4. Put plainly: FOXO4 knockdown by short hairpins: FOXO4 mRNA (QPCR) and punctate FOXO4 staining. The settings on record: HCA2 fibroblasts, 8 days after 10Gy XRAY. It is filed as cell-based, human. An excerpt:
FIG. 2. Knockdown of FOXO4 results in apoptosis rather than senescence in DNA-damaged IMR90 fibroblasts. A) Reduction in punctate FOXO4 staining and FOXO4 mRNA expression after 8 days 10Gy XRAY in HCA2 fibroblasts infected […] hairpins targeted at FOXO4. […] B) Increased cytoplasmic Cytochrome C staining (a marker of apoptosis; arrowheads) in DNA-damaged IMR90 cells infected with knockdown against FOXO4. The percentage apoptotic cells is quantified. C) Increased TUNEL staining (a second marker of apoptosis) in similar conditions a B.
FIG. 2A: HCA2 fibroblasts were infected with lentiviral particles containing a control shRNA-encoding vector targeted against a mature sequence in GFP (based on vector PLK0.1, Open Biosystems): 5′-[…]-3′ or two independent sequences in (human) FOXO4, shFOXO4-1: 5′-[…]-3′ and shFOXO4-2: 5′-[…]-3′. Following selection for two days in 0.5 μg/ml Puromycin cells were plated and processed as in FIG. 1 to determine FOXO4 mRNA expression and FOXO4 localization by immunofluorescence. FIG. 2B: IMR90 fibroblasts were infected and treated as in A). Following selection 2×10^5 cells were plated on coverslips and irradiated the next day. […] The percentage of cells with released Cytochrome C staining (translocated from punctual mitochondrial staining to diffuse or absent staining) was determined for 100 cells per condition. […]

In experiment [2] the test system is MCF7 mammary carcinoma cells. As to the kind of experiment: Cytochrome C release in MCF7 cells with FOXO4 knockdown treated with 5'-fluoro-uracil. It is filed as cell-based, human. The settings on record: 5 μM, 40 h. Here is the method:
FIG. 11. Sensitization of melanoma cells other types of cancer to additional types of chemotherapy. A) A375 melanoma cells were incubated with the FOXO4-p53 blocking peptide mix in the presence or absence of 2 μM Cisplatin and after 4 days cellular morphology was visualized. […] B) MCF7 mammary carcinoma cells were infected with the short hairpins against FOXO4 and after puromycin selection treated with 5 μM 5′-fluoro-uracil. 40 h later the percentage Cytochrome C-release was scored. The immunofluorescence panels show staining of Cytochrome C. The top, middle and bottom left panels all show mitochondrial Cytochrome C staining. […] C) B16F10Luc mouse melanoma cells were infected with a mouse-specific short hairpin against FOXO4 and short hairpin #2 against human FOXO4 from FIG. 2 which shares sequence homology with mouse FOXO4. After puromycin selection cells were incubated with 10 μM Cisplatin and after 7 days cellular viability was determined by CellTiter 96® AQueous One Solution Cell Proliferation Assay (MTS).
FIG. 11A: 2×10^5 A375 melanoma cells were plated in 24-well plate chambers. The next day the cells were incubated with 50 μM DBD2-peptide or a mixture of 25 μM DBD2-peptide and 25 μM C-term peptide in the presence or absence of 2 μM Cisplatin. […]

The test system of experiment [3] is A375 melanoma cells. As to the kind of experiment: Surviving fraction (MTS) of A375-shGFP versus A375-shFOXO4 cells treated with chemotherapeutic agents. It counts as cell-based, human. Here is the method:
FIG. 12. FOXO4 inhibition on sensitizes A375 melanoma cells to inhibitors of the BRAF/MEK pathway. A) A375 cells stably infected with a control shRNA (shGFP) or an shRNA against FOXO4 (shFOXO4) were treated with the indicated concentrations of the BRAF^V600E-inhibitor PLX4032 and the percentage of the surviving fraction on was determined by Aqueous CellQuant assay either after day 6 (left panel) or day 11 (right panel). Note that for the right panel the cells were refreshed at day 7 with the exact same concentration on of PLX4032. B) Similar experiment as in A), except with the general RAF inhibitor RAF265. C) Similar experiment as in A), except with the MEK inhibitor AZD6244.
FIG. 12A: 2×10^4 A375-shGFP or A375-shFOXO4-2 cells were plated in triplicate in 96-well plate chambers. The next day the cells were incubated with the indicated concentrations of PLX4032 or left untreated. After 6 days the a CellTiter 96® AQueous One Solution Cell Proliferation Assay (MTS) was performed according to the manufacturer's instructions (Promega) to determine the relative number of cells versus Mock treated A375-shGFP or A375-shFOXO4-2 melanoma cells (Left panel). Additionally, in a separate experiment the cells were refreshed at day 7 with the same dose of PLX4032 and left for another 4 days after which the same procedure was performed. […]

Experiment [4] has as its system JNK1/2. As to conditions: in vitro and in cultured cells; literature; cited from earlier work.

Take 5′-CCAGCTTCAGTCAGCAGTTAT-3′ [shFOXO4-1]: the “knockdown of FOXO4 mRNA and punctate FOXO4 staining” value in experiment [1] is “induce knockdown of FOXO4 mRNA and reduction in punctate FOXO4”.

As to 5′-CGTCCACGAAGCAGTTCAAAT-3′ [shFOXO4-2], in experiment [1], the “knockdown of FOXO4 mRNA and punctate FOXO4 staining” value was “induce knockdown of FOXO4 mRNA and reduction in punctate FOXO4”. `O=c1[nH]cc(F)c(=O)[nH]1` [5-fluorouracyl]: the “sensitization of MCF7 cells by FOXO4 knockdown (Cytochrome C release)” value in experiment [2] is given as “sensitized”. As to `N.N.[Cl][Pt][Cl]` [Cisplatin], the “sensitivity of A375-shFOXO4 versus A375-shGFP melanoma cells” value in experiment [3] was “more sensitive”.

In the case of `Cn1c(Nc2ccc(C(F)(F)F)cc2)nc2cc(Oc3ccnc(-c4ncc(C(F)(F)F)[nH]4)c3)ccc21` [RAF265], the “sensitivity of A375-shFOXO4 versus A375-shGFP melanoma cells” value in experiment [3] was “more sensitive”. “dDdQdSdRdPdVdQdPdFdLdQdLdTdTdPdRdKdPdRdPdPdRdRdRdQdRdRdKdKdRG [D-JNK1]”: the “inhibition of JNK1/2 kinase activity” value in experiment [4] was “selectively blocks access to its substrates”.
